Measurements from ChEMBL document CHEMBL3779873, “Rubrolide analogues and their derived lactams as potential anticancer agents” (Medchemcomm, 2016).

Assays:
[1] = Cytotoxicity against human HCT116 cells assessed as reduction in cell viability at 25 ug/mL after 72 hrs by MTT assay; format: functional, HCT-116
[2] = Cytotoxicity against human OVCAR8 cells assessed as reduction in cell viability at 25 ug/mL after 72 hrs by MTT assay; format: functional, OVCAR-8
[3] = Cytotoxicity against human SF295 cells assessed as reduction in cell viability at 25 ug/mL after 72 hrs by MTT assay; format: functional, SF-295
[4] = Cytotoxicity against human OVCAR8 cells after 72 hrs by MTT assay; format: functional, OVCAR-8
[5] = Cytotoxicity against human SF295 cells after 72 hrs by MTT assay; format: functional, SF-295
[6] = Cytotoxicity against human HCT116 cells after 72 hrs by MTT assay; format: functional, HCT-116
[7] = Cytotoxicity against human HL60 cells after 72 hrs by MTT assay; format: functional, HL-60

COc1ccc(Br)cc1C1=C(Br)C(=O)N(CC(C)C)/C1=C/c1cccc(Cl)c1
Activity [1]: 93.44% | Activity [2]: 93.39% | Activity [3]: 90.65% | RC50 [4]: 4.18 µM | RC50 [5]: 8.03 µM | RC50 [6]: 5.52 µM | RC50 [7]: 3.46 µM

COc1ccc(Cl)cc1-c1c(Cc2cccc([N+](=O)[O-])c2)n[nH]c(=O)c1Br
Activity [1]: 31.84% | Activity [2]: 37.42% | Activity [3]: 47.34%

O=C1O/C(=C\c2ccc(C(F)(F)F)cc2)C(Cl)=C1Cl
Activity [1]: 76.92% | Activity [2]: 98.2% | Activity [3]: 92.21%

O=C1O/C(=C\c2ccc(F)cc2)C(Cl)=C1Cl
Activity [1]: 97.68% | Activity [2]: 98.99% | Activity [3]: 68.44%

COc1cccc(Cc2n[nH]c(=O)c(Br)c2-c2cc(Br)ccc2OC)c1
Activity [1]: 10.78% | Activity [2]: 10.69% | Activity [3]: 30.95%

CC(C)CN1C(=O)C(Cl)=C(Cl)/C1=C\c1ccc(Br)cc1
Activity [1]: 57.48% | Activity [2]: 52.94% | Activity [3]: 58.59%

O=C1O/C(=C\c2ccc3c(c2)OCO3)C(Cl)=C1Cl
Activity [1]: 53.64% | Activity [2]: 94.9% | Activity [3]: 87.84%

COc1ccccc1C1=C(Br)C(=O)N(CC(C)C)/C1=C\c1ccc(C(F)(F)F)cc1
Activity [1]: 79.09% | Activity [2]: 47.91% | Activity [3]: 51.01%

COc1ccc(Cl)cc1C1=C(Br)C(=O)O/C1=C\c1ccc(F)cc1
Activity [1]: 55.49% | Activity [2]: 32.6% | Activity [3]: 84.72%

COc1ccc(Br)cc1C1=C(Br)C(=O)N(CC(C)C)/C1=C\c1cccc(Cl)c1
Activity [1]: 86.98% | Activity [2]: 52.15% | Activity [3]: 72.36%

COc1ccc(Cl)cc1-c1c(Cc2ccc(F)cc2)n[nH]c(=O)c1Br
Activity [1]: 14.71% | Activity [2]: 42.17% | Activity [3]: 18.95%

COc1cccc(/C=C2/C(c3cc(Cl)ccc3OC)=C(Br)C(=O)N2CC(C)C)c1
Activity [1]: 38.65% | Activity [2]: 42.28% | Activity [3]: 25.57%

COc1ccc(Br)cc1C1=C(Br)C(=O)N(CC(C)C)/C1=C\c1ccc(Br)cc1
Activity [1]: 44.22% | Activity [2]: 25.49% | Activity [3]: 30.25%

O=C1O/C(=C\c2ccc(Cl)cc2)C(Cl)=C1Cl
Activity [1]: 95.81% | Activity [2]: 0% | Activity [3]: 48.84%

COc1cccc(/C=C2\OC(=O)C(Br)=C2c2cc(Cl)ccc2OC)c1
Activity [1]: 97.09% | Activity [2]: 97.92% | Activity [3]: 48.09%

COc1ccc(Cl)cc1-c1c(Cc2ccc(C(F)(F)F)cc2)n[nH]c(=O)c1Br
Activity [1]: 97.73% | Activity [2]: 53.87% | Activity [3]: 73.87%

COc1cccc(/C=C2\C(c3cc(Cl)ccc3OC)=C(Br)C(=O)N2CC(C)C)c1
Activity [1]: 75.51% | Activity [2]: 55.28% | Activity [3]: 79.36%

COc1ccc(Br)cc1C1=C(Br)C(=O)O/C1=C\c1ccccc1Cl
Activity [1]: 74.4% | Activity [2]: 57.61% | Activity [3]: 49.4%

COc1ccc(Br)cc1-c1c(Cc2ccc(F)cc2)n[nH]c(=O)c1Br
Activity [1]: 59.8% | Activity [2]: 29.08% | Activity [3]: 48.14%

O=C1O/C(=C\c2cccc(Cl)c2)C(Cl)=C1Cl
Activity [1]: 62.17% | Activity [2]: 99.86% | Activity [3]: 86.08%

COc1ccc(C)cc1C1=C(Br)C(=O)O/C1=C\c1ccccc1Cl
Activity [1]: 35.84% | Activity [2]: 26.18% | Activity [3]: 2.02%

COc1cccc(CC2(O)C(c3cc(Cl)ccc3OC)=C(Br)C(=O)N2CC(C)C)c1 (configuration not stated)
Activity [1]: 67.25% | Activity [2]: 27% | Activity [3]: 69.2%

COc1ccc(C)cc1C1=C(Br)C(=O)N(CC(C)C)/C1=C\c1ccccc1Cl
Activity [1]: 77.02% | Activity [2]: 20.46% | Activity [3]: 61.86%

O=C1O/C(=C\c2ccc([N+](=O)[O-])cc2)C(Cl)=C1Cl
Activity [1]: 93.05% | Activity [2]: 98.2% | Activity [3]: 84.12% | RC50 [4]: 9.51 µM | RC50 [5]: 29.37 µM | RC50 [6]: 22.76 µM | RC50 [7]: 8.98 µM

COc1ccc(C)cc1C1=C(Br)C(=O)N(CC(C)C)C1(O)Cc1ccccc1Cl (configuration not stated)
Activity [1]: 78.5% | Activity [2]: 44.39% | Activity [3]: 63.57%

COc1ccc(Br)cc1C1=C(Br)C(=O)N(CC(C)C)C1(O)Cc1ccc(Br)cc1 (configuration not stated)
Activity [1]: 82.39% | Activity [2]: 32.1% | Activity [3]: 56.18%

CC(C)CN1C(=O)C(Cl)=C(Cl)C1(O)Cc1ccc(Br)cc1 (configuration not stated)
Activity [1]: 49.89% | Activity [2]: 13.42% | Activity [3]: 42.06%

CCCN1C(=O)C(Cl)=C(Cl)/C1=C\c1ccc(F)cc1
Activity [1]: 64.83% | Activity [2]: 99.07% | Activity [3]: 97.74%

COc1ccc(Cl)cc1C1=C(Br)C(=O)O/C1=C\c1ccc([N+](=O)[O-])cc1
Activity [1]: 92.2% | Activity [2]: 53.71% | Activity [3]: 82.86%

COc1ccc(Br)cc1-c1c(Cc2ccccc2Cl)n[nH]c(=O)c1Br
Activity [1]: 38.1% | Activity [2]: 27.93% | Activity [3]: 47.29%

COc1ccc(Br)cc1-c1c(Cc2ccc(C(F)(F)F)cc2)n[nH]c(=O)c1Br
Activity [1]: 98.03% | Activity [2]: 46.18% | Activity [3]: 74.92%

COc1ccccc1C1=C(Br)C(=O)N(CC(C)C)C1(O)Cc1ccc(C(F)(F)F)cc1 (configuration not stated)
Activity [1]: 78.84% | Activity [2]: 21.61% | Activity [3]: 67.94%

O=C1O/C(=C\c2ccccc2Br)C(Cl)=C1Cl
Activity [1]: 97.58% | Activity [2]: 93.14% | Activity [3]: 92.81% | RC50 [4]: 11.64 µM | RC50 [5]: 32.64 µM | RC50 [6]: 32.22 µM | RC50 [7]: 10.01 µM

COc1ccccc1C1=C(Br)C(=O)N(CC(C)C)/C1=C/c1ccc(C(F)(F)F)cc1
Activity [1]: 88.8% | Activity [2]: 75.07% | Activity [3]: 84.72%

CC(C)CN1C(=O)C(Cl)=C(Cl)/C1=C/c1ccc(Br)cc1
Activity [1]: 97.93% | Activity [2]: 54.45% | Activity [3]: 48.29%

COc1ccc(Br)cc1C1=C(Br)C(=O)N(CC(C)C)/C1=C/c1ccc(Br)cc1
Activity [1]: 97.98% | Activity [2]: 90.66% | Activity [3]: 53.77%

COc1ccc(Br)cc1C1=C(Br)C(=O)N(CC(C)C)C1(O)Cc1cccc(Cl)c1 (configuration not stated)
Activity [1]: 92.75% | Activity [2]: 98.49% | Activity [3]: 78.09%

COc1ccc(Cl)cc1C1=C(Br)C(=O)O/C1=C\c1ccc(C(F)(F)F)cc1
Activity [1]: 91.81% | Activity [2]: 96.84% | Activity [3]: 80.1% | RC50 [4]: 7.51 µM | RC50 [5]: 14.12 µM | RC50 [6]: 12.66 µM | RC50 [7]: 5.5 µM

COc1ccc(C)cc1C1=C(Br)C(=O)N(CC(C)C)/C1=C/c1ccccc1Cl
Activity [1]: 19.23% | Activity [2]: 34.8% | Activity [3]: 6.91%

COc1ccc(Br)cc1C1=C(Br)C(=O)O/C1=C\c1ccc(Br)cc1
Activity [1]: 97.53% | Activity [2]: 98.28% | Activity [3]: 75.68%

COc1ccccc1C1=C(Br)C(=O)O/C1=C\c1ccc(C(F)(F)F)cc1
Activity [1]: 84.46% | Activity [2]: 98.85% | Activity [3]: 71.31%

CCCN1C(=O)C(Cl)=C(Cl)C1(O)Cc1ccc(F)cc1 (configuration not stated)
Activity [1]: 25.82% | Activity [2]: 9.25% | Activity [3]: 10.95%
